Data reported in US11491120B2, “Pharmacological prophylactics against stress-induced affective disorders in females” (The Trustees of Columbia University in the City of New York, priority 2017, dated 2022).

Tests used:
humans = conditions: sub-anesthetic doses, cited from earlier work
male mice = conditions: as previously shown; cited from earlier work
mice = conditions: sub-anesthetic doses; cited from earlier work
female 129S6/SvEv mice [1] = experiment: Forced swim test after 10-day chronic immobilization stress (CIS); assay type: in vivo, mouse; conditions: 10 mg/kg, 1 week prophylactic drug
Protocol: The CIS procedure induces a depressive-like phenotype in test subjects and has both predictive and face validity (54). Here, we used an adapted protocol from Ramirez et al. (55).
As previously tested in male mice (18), we validated our findings in a model of chronic stress. […] Drug dosages were chosen based on results from FIG. 1 and used for the remainder of the project unless otherwise specified. One week later, a 10-day CIS protocol was administered. Subsequently, mice were tested in the FST.

female 129S6/SvEv mice [2] = experiment: Contextual fear conditioning (CFC), 3-shock, freezing in training and context re-exposure; conditions: for p, Sal vs. drug, Dunnett test: Freezing (Average), Contextual Fear Conditioning Re-exposure / p, Freezing (min 1-5) / p, Freezing (min 2) / p, Freezing (min 3) / p, Freezing (min 4) / p, Freezing (min 5): 1 week prophylactic drug; for Freezing during 3-shock CFC training vs saline: 2.5, 10, or 30 mg/kg, 1 week before CFC; for p, Freezing (min 1-5) / p, Freezing (min 2) / p, Freezing (min 3) / p, Freezing (min 4) / p, Freezing (min 5): Contextual Fear Conditioning Re-exposure
[3] = Dunnett test Sal vs. drug (2.5)

Structure (SMILES): CNC1(c2ccccc2Cl)CCCCC1=O (racemic) [(R,S)-ketamine, (RS)-2-(2-chlorophenyl)-2-(methylamino)cyclohexanone]
- Antidepressant onset (humans; humans): 2 h
- Duration of antidepressant effect (humans): up to 2 weeks
- Prophylactically effective dose in males (male mice): 30 mg/kg
- Antidepressant onset (mice): 30 min
- * (significance), Sal vs. drug, Fisher's PLSD: Immobility Time (min 2), Forced Swim Test Day 2 (female 129S6/SvEv mice [1]): * (* p<0.05)
- * (significance), Sal vs. drug, Fisher's PLSD: Immobility Time (min 5), Forced Swim Test Day 2 (female 129S6/SvEv mice [1]): ** (** p<0.01)
- * (significance), Sal vs. drug, Fisher's PLSD: Immobility Time (min 6), Forced Swim Test Day 1 (female 129S6/SvEv mice [1]): ** (** p<0.01)
- * (significance), Sal vs. drug, Fisher's PLSD: Immobility Time (min 6), Forced Swim Test Day 2 (female 129S6/SvEv mice [1]): ** (** p<0.01)
- * (significance), Sal vs. drug, Fisher's PLSD: Immobility Time Average (min 3-6), Forced Swim Test Day 2 (female 129S6/SvEv mice [1]): ** (** p<0.01)
- p, Sal vs. drug, Fisher's PLSD: Immobility Time (min 1), Forced Swim Test Day 1 (female 129S6/SvEv mice [1]): 0.1619
- p, Sal vs. drug, Fisher's PLSD: Immobility Time (min 1), Forced Swim Test Day 2 (female 129S6/SvEv mice [1]): 0.0533
- p, Sal vs. drug, Fisher's PLSD: Immobility Time (min 2), Forced Swim Test Day 1 (female 129S6/SvEv mice [1]): 0.4051
- p, Sal vs. drug, Fisher's PLSD: Immobility Time (min 2), Forced Swim Test Day 2 (female 129S6/SvEv mice [1]): 0.0325
- p, Sal vs. drug, Fisher's PLSD: Immobility Time (min 3), Forced Swim Test Day 1 (female 129S6/SvEv mice [1]): 0.5575
- p, Sal vs. drug, Fisher's PLSD: Immobility Time (min 4), Forced Swim Test Day 1 (female 129S6/SvEv mice [1]): 0.4015
- p, Sal vs. drug, Fisher's PLSD: Immobility Time (min 5), Forced Swim Test Day 1 (female 129S6/SvEv mice [1]): 0.4985
- p, Sal vs. drug, Fisher's PLSD: Immobility Time (min 5), Forced Swim Test Day 2 (female 129S6/SvEv mice [1]): 0.0011
- p, Sal vs. drug, Fisher's PLSD: Immobility Time (min 6), Forced Swim Test Day 1 (female 129S6/SvEv mice [1]): 0.0022
- p, Sal vs. drug, Fisher's PLSD: Immobility Time (min 6), Forced Swim Test Day 2 (female 129S6/SvEv mice [1]): 0.0006
- p, Sal vs. drug, Fisher's PLSD: Immobility Time Average (min 3-6), Forced Swim Test Day 2 (female 129S6/SvEv mice [1]): 0.0005
- p, Sal vs. drug, Fishers PLSD: Immobility Time Average (min 1-6), Forced Swim Test Day 1 (female 129S6/SvEv mice [1]): 0.1873
- p, Sal vs. drug, Dunnett test: Freezing (Average), Contextual Fear Conditioning Re-exposure (female 129S6/SvEv mice [2]; 2.5 mg/kg): 0.7546
- p, Sal vs. drug, Dunnett test: Freezing (Average), Contextual Fear Conditioning Re-exposure (female 129S6/SvEv mice [2]; 10 mg/kg): 0.8986
- p, Sal vs. drug, Dunnett test: Freezing (Average), Contextual Fear Conditioning Re-exposure (female 129S6/SvEv mice [2]; 30 mg/kg): 0.8647
- Freezing during 3-shock CFC training vs saline (female 129S6/SvEv mice [2]; female mice): did not alter freezing
- Freezing during 3-shock CFC training vs saline (female 129S6/SvEv mice [2]; female mice, listed as (R, S)-ketamine): did not alter fear encoding
- Freezing during CFC training vs saline (female 129S6/SvEv mice [2]; 2.5 and 10 mg/kg, 3 days before CFC, female mice): significantly increased freezing compared to saline
- Freezing during CFC training vs saline (female 129S6/SvEv mice [2]; 2.5 and 10 mg/kg, 3 days before CFC, female mice; listed as R,S)-ketamine): significantly increased freezing during the last minute
- Freezing during context re-exposure vs saline (female 129S6/SvEv mice [2]; 3 days before CFC, female mice): do not affect freezing during re-exposure
- p, Freezing (min 1-5) (female 129S6/SvEv mice [2]; [3]): 0.7546
- p, Freezing (min 2) (female 129S6/SvEv mice [2]; [3]): 0.9996
- p, Freezing (min 3) (female 129S6/SvEv mice [2]; [3]): 0.6267
- p, Freezing (min 4) (female 129S6/SvEv mice [2]; [3]): 0.1951
- p, Freezing (min 5) (female 129S6/SvEv mice [2]; [3]): 0.4912
- p, Freezing (min 1-5) (female 129S6/SvEv mice [2]; Dunnett test Sal vs. drug (10)): 0.8986
- p, Freezing (min 2) (female 129S6/SvEv mice [2]; Dunnett test Sal vs. drug (10)): 0.9240
- p, Freezing (min 3) (female 129S6/SvEv mice [2]; Dunnett test Sal vs. drug (10)): 0.9864
- p, Freezing (min 4) (female 129S6/SvEv mice [2]; Dunnett test Sal vs. drug (10)): 0.6904
- p, Freezing (min 5) (female 129S6/SvEv mice [2]; Dunnett test Sal vs. drug (10)): 0.6667
- p, Freezing (min 1-5) (female 129S6/SvEv mice [2]; Dunnett test Sal vs. drug (30)): 0.8647
- p, Freezing (min 2) (female 129S6/SvEv mice [2]; Dunnett test Sal vs. drug (30)): 0.6079
- p, Freezing (min 3) (female 129S6/SvEv mice [2]; Dunnett test Sal vs. drug (30)): 0.8139
- p, Freezing (min 4) (female 129S6/SvEv mice [2]; Dunnett test Sal vs. drug (30)): 0.9885
- p, Freezing (min 5) (female 129S6/SvEv mice [2]; Dunnett test Sal vs. drug (30)): 0.9996
